# Reference: patent publication US12162848B2, “Inhibitors of protein tyrosine phosphatase, compositions, and methods of use” (BRISTOL-MYERS SQUIBB COMPANY, priority 2022, dated 2024)
# pEC50, pIC50: −log10 of the molar value.
# Tests used:
# [1] = molecular target: T1, PTPN2 enzyme (Homo sapiens, UniProt P17706); test: PhosphoSens PTPN2 biochemical assay; details: substrate AQT0264 20 μM, room temperature; read-out: PTPN2 BCHEM IC50
# T1 sequence (P17706 1-415): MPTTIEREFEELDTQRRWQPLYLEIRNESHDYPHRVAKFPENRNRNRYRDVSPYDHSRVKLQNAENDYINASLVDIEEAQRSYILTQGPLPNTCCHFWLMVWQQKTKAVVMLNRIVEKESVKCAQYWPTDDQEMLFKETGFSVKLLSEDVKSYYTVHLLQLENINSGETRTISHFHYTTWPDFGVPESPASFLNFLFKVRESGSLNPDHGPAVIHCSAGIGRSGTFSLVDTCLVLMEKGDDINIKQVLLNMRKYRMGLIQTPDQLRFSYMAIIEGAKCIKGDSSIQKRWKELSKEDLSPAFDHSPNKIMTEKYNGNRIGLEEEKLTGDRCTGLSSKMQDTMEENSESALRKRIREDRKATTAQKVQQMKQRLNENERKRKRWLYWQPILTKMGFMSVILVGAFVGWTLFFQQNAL
# Method in brief: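 PhosphoSens fluorescence format with 20 μM final AQT0264 substrate and […] in 50 mM HEPES pH 7.5, 500 μM EGTA, […], 0.01% Brij-35, 1% glycerol, 1 mM DTT, 0.2 mg/mL BSA. Compounds in 3-fold dilution series; progress curves read (ex 360/em 480 nm) every 71 s for 1 h at room temperature.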
# [2] = test system: phosphorylated STAT1 protein levels in B16-F10 cells; test: Phospho-STAT1 (Tyr701) HTRF assay in IFN-gamma treated B16-F10 cells; assay type: cell-based; details: mouse IFN-gamma 100 ng/mL, 1 hour, read-out: pSTAT1 HTRF B16 EC50
# Method in brief: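 Mouse B16-F10 cells, 10,000/well, pretreated 1 h with compound (0.15% DMSO), then stimulated with mouse IFN-gamma at 100 ng/mL final for 1 h at 37 C. Phospho-STAT1 (Tyr701) measured by HTRF.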
# [3] = test system: B16-F10 cells; test: Cell proliferation assay (CellTiter-Glo) in IFN-gamma treated B16-F10 cells; assay type: cell-based; details: 120 h, mouse IFN-gamma 10 ng/mL, read-out: PTPN2 Prolif 5d B16F10 EC50
SMILES,pIC50 [1],pEC50 [2],pEC50 [3]
"O=C1CN(c2c(O)cc(-c3ccnc(-c4ccccc4)c3)cc2F)S(=O)(=O)N1 [EXAMPLE 20, 5-[2-fluoro-6-hydroxy-4-(2-phenyl-4-pyridyl)phenyl]-1,1-dioxo-1,2,5-thiadiazolidin-3-one]",6.69,≤ 4.82,≤ 4.82
"O=C1CN(c2c(O)cc(CN[C@H]3CCCNC3)cc2F)S(=O)(=O)N1 [EXAMPLE 65, (S)-5-(2-fluoro-6-hydroxy-4-((piperidin-3-ylamino)methyl)phenyl)-1,2,5-thiadiazolidin-3-one 1,1-dioxide]",6.89,5.28,5.16
"O=C1CN(c2c(O)cc(-c3ccncc3)cc2F)S(=O)(=O)N1 [EXAMPLE 9, 5-(2-fluoro-6-hydroxy-4-(pyridin-4-yl)phenyl)-1,2,5-thiadiazolidin-3-one 1,1-dioxide]",6.49,≤ 4.82,≤ 4.82
"O=C1CN(c2c(O)cc(CN3CCC(O)CC3)cc2F)S(=O)(=O)N1 [EXAMPLE 52, 5-[2-fluoro-6-hydroxy-4-[(4-hydroxy-1-piperidyl)methyl]phenyl]-1,1-dioxo-1,2,5-thiadiazolidin-3-one]",6.94,5.34,5.16
"O=C1CN(c2c(O)cc(CN3CCC(F)CC3)cc2F)S(=O)(=O)N1 [EXAMPLE 42, 5-(2-fluoro-4-((4-fluoropiperidin-1-yl)methyl)-6-hydroxyphenyl)-1,2,5-thiadiazolidin-3-one 1,1-dioxide]",7.22,5.59,5.33
"O=C1CN(c2c(O)cc(-c3ccc(CN4CCCC4)cc3)cc2F)S(=O)(=O)N1 [EXAMPLE 19, 5-[2-fluoro-6-hydroxy-4-[4-(pyrrolidin-1-ylmethyl)phenyl]phenyl]-1,1-dioxo-1,2,5-thiadiazolidin-3-one]",6.32,≤ 4.82,≤ 4.82
"COCCN1CCN(c2cc(O)c(N3CC(=O)NS3(=O)=O)c(F)c2)CC1 [EXAMPLE 86, 5-(2-fluoro-6-hydroxy-4-(4-(2-methoxyethyl)piperazin-1-yl)phenyl)-1,2,5-thiadiazolidin-3-one 1,1-dioxide]",6.47,≤ 4.82,≤ 4.82
"CNC(=O)CN1CCN(Cc2cc(O)c(N3CC(=O)NS3(=O)=O)c(F)c2)CC1 [EXAMPLE 59, 2-(4-(4-(1,1-dioxido-4-oxo-1,2,5-thiadiazolidin-2-yl)-3-fluoro-5-hydroxybenzyl)piperazin-1-yl)-N-methylacetamide]",6.32,≤ 4.82,≤ 4.82
"CC(C)CCN1CCN(Cc2cc(O)c(N3CC(=O)NS3(=O)=O)c(F)c2)CC1 [EXAMPLE 32, 5-(2-fluoro-6-hydroxy-4-((4-isopentylpiperazin-1-yl)methyl)phenyl)-1,2,5-thiadiazolidin-3-one 1,1-dioxide]",7.19,≤ 4.82,≤ 4.82
"CC(C)CCN1CCC[C@H](NCc2cc(O)c(N3CC(=O)NS3(=O)=O)c(F)c2)C1 [EXAMPLE 63, 5-[2-fluoro-6-hydroxy-4-[[[(3S)-1-isopentyl-3-piperidyl]amino]methyl]phenyl]-1,1-dioxo-1,2,5-thiadiazolidin-3-one]",6.82,≤ 4.82,≤ 4.82
"O=C1CN(c2c(O)cc(-c3cnc4ccccc4c3)cc2F)S(=O)(=O)N1 [EXAMPLE 24, 5-[2-fluoro-6-hydroxy-4-(3-quinolyl)phenyl]-1,1-dioxo-1,2,5-thiadiazolidin-3-one]",6.72,≤ 4.82,≤ 4.82
"O=C1CN(c2c(O)cc(CN[C@@H]3CCCOC3)cc2F)S(=O)(=O)N1 [EXAMPLE 64, (R)-5-(2-fluoro-6-hydroxy-4-(((tetrahydro-2H-pyran-3-yl)amino)methyl)phenyl)-1,2,5-thiadiazolidin-3-one 1,1-dioxide]",6.86,5.66,5.57
"O=C1CN(c2c(O)cc(CN[C@H]3CCCN(S(=O)(=O)C4CC4)C3)cc2F)S(=O)(=O)N1 [EXAMPLE 73, 5-[4-[[[(3S)-1-cyclopropylsulfonyl-3-piperidyl]amino]methyl]-2-fluoro-6-hydroxy-phenyl]-1,1-dioxo-1,2,5-thiadiazolidin-3-one]",8.00,5.11,5.01
"CNC(=O)[C@H]1CC[C@H](NCc2cc(O)c(N3CC(=O)NS3(=O)=O)c(F)c2)CC1 [EXAMPLE 58, (1r,4r)-4-((4-(1,1-dioxido-4-oxo-1,2,5-thiadiazolidin-2-yl)-3-fluoro-5-hydroxybenzyl)amino)-N-methylcyclohexane-1-carboxamide]",6.42,5.29,≤ 4.82
"CN1CCC(c2ccc(O)c(N3CC(=O)NS3(=O)=O)c2F)CC1 [EXAMPLE 106, 5-(2-fluoro-6-hydroxy-3-(1-methylpiperidin-4-yl)phenyl)-1,2,5-thiadiazolidin-3-one 1,1-dioxide]",5.35,≤ 4.82,≤ 4.82

# The remaining compounds from weak to strong by pIC50 [1], led by results:
pIC50 [1],pEC50 [2],pEC50 [3],SMILES
5.93,≤ 4.82,≤ 4.82,"O=C1CN(c2c(O)cc(-c3cc(-c4ccccc4)cs3)cc2F)S(=O)(=O)N1 [EXAMPLE 18, 5-[2-fluoro-6-hydroxy-4-(4-phenyl-2-thienyl)phenyl]-1,1-dioxo-1,2,5-thiadiazolidin-3-one]"
6.34,≤ 4.82,≤ 4.82,"CN1CCN(c2ccc(-c3cc(O)c(N4CC(=O)NS4(=O)=O)c(F)c3)cn2)CC1 [EXAMPLE 27, 5-[2-fluoro-6-hydroxy-4-[6-(4-methylpiperazin-1-yl)-3-pyridyl]phenyl]-1,1-dioxo-1,2,5-thiadiazolidin-3-one]"
6.50,≤ 4.82,≤ 4.82,"CN(C)C1CCN(c2cc(O)c(N3CC(=O)NS3(=O)=O)c(F)c2)CC1 [EXAMPLE 87, 5-(4-(4-(dimethylamino)piperidin-1-yl)-2-fluoro-6-hydroxyphenyl)-1,2,5-thiadiazolidin-3-one 1,1-dioxide]"
6.62,5.37,5.36,"CN(Cc1cc(O)c(N2CC(=O)NS2(=O)=O)c(F)c1)C1CCCCC1 [EXAMPLE 43, 5-(4-((cyclohexyl(methyl)amino)methyl)-2-fluoro-6-hydroxyphenyl)-1,2,5-thiadiazolidin-3-one 1,1-dioxide]"
6.65,≤ 4.82,≤ 4.82,"CN(C)CC1CCN(Cc2cc(O)c(N3CC(=O)NS3(=O)=O)c(F)c2)CC1 [EXAMPLE 56, 5-[4-[[4-[(dimethylamino)methyl]-1-piperidyl]methyl]-2-fluoro-6-hydroxy-phenyl]-1,1-dioxo-1,2,5-thiadiazolidin-3-one]"
6.75,≤ 4.82,≤ 4.82,"CC(C)(O)c1ccc(-c2cc(O)c(N3CC(=O)NS3(=O)=O)c(F)c2)cc1 [EXAMPLE 22, 5-[2-fluoro-6-hydroxy-4-[4-(1-hydroxy-1-methyl-ethyl)phenyl]phenyl]-1,1-dioxo-1,2,5-thiadiazolidin-3-one]"
7.03,≤ 4.82,≤ 4.82,"CN(C)C1CCN(Cc2cc(O)c(N3CC(=O)NS3(=O)=O)c(F)c2)CC1 [EXAMPLE 33, 5-(4-((4-(dimethylamino)piperidin-1-yl)methyl)-2-fluoro-6-hydroxyphenyl)-1,2,5-thiadiazolidin-3-one 1,1-dioxide]"
7.05,5.76,5.77,"O=C1CN(c2c(O)cc(CNC3CCCCC3)cc2F)S(=O)(=O)N1 [EXAMPLE 34, 5-[4-[(cyclohexylamino)methyl]-2-fluoro-6-hydroxy-phenyl]-1,1-dioxo-1,2,5-thiadiazolidin-3-one]"
